As a reminder, the IC50 is the concentration needed to halve the response being measured.

Read-outs that look alike come from different tables or passages of the source.

The target of assay [1] is His6-TEV-PDGFRβ (557-1016) (Homo sapiens (Human), UniProt P09619). In words: PDGFRβ HTRF Assay. The class given is biochemical. Particulars: read-out: PDGFR HTRF IC50. The method in brief: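 HTRF KinEASE-TK readout (665/620 nm ratio) of TK-biotin substrate phosphorylation by His-tagged PDGFRβ kinase domain. Enzyme and inhibitor preincubated 30 min, then ATP/substrate added for 3 h at room temperature before 60 min EDTA quench/detection.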

Another assay concerns the target PDGFRβ (Rattus norvegicus (Rat), UniProt Q05030). Briefly: PDGFRβ Cellular Assay (PDGFRb P-Y751 HTRF in A10 cells stimulated with PDGF-BB). The class given is cell-based. The method in brief: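 Phospho-Y751 PDGFRβ was measured by HTRF in lysates of A10 rat cells. Cells received compound for 3 hours before PDGF-BB stimulation (100 ng/mL working stock).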
In general terms: TR-FRET usually uses a lanthanide donor and a delayed reading to cut background.

PDGFRβ, sequence (Q05030 32-1097): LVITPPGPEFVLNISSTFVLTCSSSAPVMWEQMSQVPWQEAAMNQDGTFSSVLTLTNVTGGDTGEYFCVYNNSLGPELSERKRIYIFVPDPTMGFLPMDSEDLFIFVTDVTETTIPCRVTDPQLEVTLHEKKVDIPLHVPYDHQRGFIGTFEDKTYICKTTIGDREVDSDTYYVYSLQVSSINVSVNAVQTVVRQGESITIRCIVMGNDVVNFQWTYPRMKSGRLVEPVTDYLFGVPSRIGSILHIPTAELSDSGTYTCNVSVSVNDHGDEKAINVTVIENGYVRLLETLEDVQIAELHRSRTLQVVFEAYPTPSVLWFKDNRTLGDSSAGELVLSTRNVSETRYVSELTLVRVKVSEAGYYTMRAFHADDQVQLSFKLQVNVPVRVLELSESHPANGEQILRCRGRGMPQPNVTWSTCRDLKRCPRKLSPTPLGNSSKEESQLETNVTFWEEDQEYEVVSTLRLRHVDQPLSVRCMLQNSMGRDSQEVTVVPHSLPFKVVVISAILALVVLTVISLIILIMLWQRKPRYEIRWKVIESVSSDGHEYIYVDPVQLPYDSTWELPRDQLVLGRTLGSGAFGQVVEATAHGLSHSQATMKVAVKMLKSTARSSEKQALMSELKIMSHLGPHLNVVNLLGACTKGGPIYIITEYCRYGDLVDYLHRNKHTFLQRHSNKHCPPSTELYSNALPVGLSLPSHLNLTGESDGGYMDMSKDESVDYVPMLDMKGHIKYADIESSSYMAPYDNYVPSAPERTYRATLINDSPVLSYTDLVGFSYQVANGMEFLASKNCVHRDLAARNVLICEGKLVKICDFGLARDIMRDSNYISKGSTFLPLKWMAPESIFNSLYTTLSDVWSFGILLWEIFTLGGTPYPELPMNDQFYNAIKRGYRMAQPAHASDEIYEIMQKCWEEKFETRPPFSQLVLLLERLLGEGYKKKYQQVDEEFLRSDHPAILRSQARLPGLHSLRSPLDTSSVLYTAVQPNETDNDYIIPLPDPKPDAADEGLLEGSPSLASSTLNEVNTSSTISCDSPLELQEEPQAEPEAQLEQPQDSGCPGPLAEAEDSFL
His6-TEV-PDGFRβ (557-1016), sequence (P09619 557-1016): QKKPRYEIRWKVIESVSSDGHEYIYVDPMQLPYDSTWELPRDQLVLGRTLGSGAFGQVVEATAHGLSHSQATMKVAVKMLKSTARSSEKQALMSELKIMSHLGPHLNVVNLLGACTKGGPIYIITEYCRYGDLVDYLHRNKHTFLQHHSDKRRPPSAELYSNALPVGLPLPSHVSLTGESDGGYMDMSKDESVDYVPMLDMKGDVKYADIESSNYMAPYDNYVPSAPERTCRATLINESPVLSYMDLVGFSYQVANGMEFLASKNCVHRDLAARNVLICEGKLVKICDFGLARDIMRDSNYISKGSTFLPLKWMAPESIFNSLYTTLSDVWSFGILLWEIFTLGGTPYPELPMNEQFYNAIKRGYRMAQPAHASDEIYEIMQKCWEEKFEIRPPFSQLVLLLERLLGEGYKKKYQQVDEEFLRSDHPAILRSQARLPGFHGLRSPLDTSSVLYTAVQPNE

Regarding `Cc1ncc(NC(=O)CCN2CCCC2(C)C)cc1NC(=O)c1cnn2cc(-n3ncc4cccnc43)sc12` [Example 260, N-(5-(3-(2,2-dimethylpyrrolidin-1-yl)propanamido)-2-methylpyridin-3-yl)-2-(1H-pyrazolo[3,4-b]pyridin-1-yl)pyrazolo[5,1-b]thiazole-7-carboxamide], the IC50 in assay [1] is 0.3 nM; on PDGFRβ (PDGFR Cellular IC50) it was 3.1 nM.

As for `COc1ncccc1-c1cn2ncc(C(=O)Nc3cc(NC(=O)CN4CCCC5(CC5)C4)cnc3C)c2s1` [Example 321, N-(5-(2-(5-azaspiro[2.5]octan-5-yl)acetamido)-2-methylpyridin-3-yl)-2-(2-methoxypyridin-3-yl)pyrazolo[5,1-b]thiazole-7-carboxamide], the IC50 in assay [1] was found to be 0.2 nM; at PDGFRβ (read-out: PDGFR Cellular IC50) it was 1.2 nM.

On to `Cc1ncc(NC(=O)OC[C@@H]2CCCN2C)cc1NC(=O)c1cnn2cc(-c3cc[nH]c3)sc12` [Example 258, (S)-(1-methylpyrrolidin-2-yl)methyl (5-(2-(1H-pyrrol-3-yl)pyrazolo[5,1-b]thiazole-7-carboxamido)-6-methylpyridin-3-yl)carbamate], for which the results for the IC50 (in assay [1]; on PDGFRβ (read-out: PDGFR Cellular IC50)) were 0.4 nM and 48.7 nM, respectively.

As to `Cc1ncc(NC(=O)CN2CCC3(CCOC3)C2)cc1NC(=O)c1cnn2cc(-c3cnn(C)c3)sc12` (centres unmarked) [Example 19, N-(5-(2-(2-oxa-7-azaspiro[4.4]nonan-7-yl)acetamido)-2-methylpyridin-3-yl)-2-(1-methyl-1H-pyrazol-4-yl)pyrazolo[5,1-b]thiazole-7-carboxamide], the 50% inhibitory concentration (IC50) is 0.7 nM in assay [1] and 12.9 nM at PDGFRβ (read-out: PDGFR Cellular IC50).

With `Cc1ncc(NC(=O)OC[C@@H]2CCCN2C)cc1NC(=O)c1cnn2cc(-c3cccnc3O)sc12` [Example 256, (S)-(1-methylpyrrolidin-2-yl)methyl (5-(2-(2-hydroxypyridin-3-yl)pyrazolo[5,1-b]thiazole-7-carboxamido)-6-methylpyridin-3-yl)carbamate], the IC50 worked out at 0.6 nM in assay [1] and 1340 nM on PDGFRβ (PDGFR Cellular IC50).

For the compound `Cc1ncc(NC(=O)CN2CC(C)(C)C2)cc1NC(=O)c1cnn2cc(-c3c[nH]c4ccccc34)sc12` [Example 287, N-(5-(2-(3,3-dimethylazetidin-1-yl)acetamido)-2-methylpyridin-3-yl)-2-(1H-indol-3-yl)pyrazolo[5,1-b]thiazole-7-carboxamide], the IC50 turned out to be 0.1 nM in assay [1] and 1.8 nM on PDGFRβ (read-out: PDGFR Cellular IC50).

As for `Cc1ncc(NC(=O)CN2CC(C)(C)C2)cc1NC(=O)c1cnn2cc(-c3cnn(C4CCNCC4)c3)sc12` [Example 293, N-(5-(2-(3,3-dimethylazetidin-1-yl)acetamido)-2-methylpyridin-3-yl)-2-(1-(piperidin-4-yl)-1H-pyrazol-4-yl)pyrazolo[5,1-b]thiazole-7-carboxamide], the IC50 in assay [1] was 0.4 nM; at PDGFRβ (read-out: PDGFR Cellular IC50), 337 nM.

For `COc1ncccc1-c1cn2ncc(C(=O)Nc3cc(NC(=O)CN4CCOC(C)(C)C4)cnc3C)c2s1` [Example 319, N-(5-(2-(2,2-dimethylmorpholino)acetamido)-2-methylpyridin-3-yl)-2-(2-methoxypyridin-3-yl)pyrazolo[5,1-b]thiazole-7-carboxamide], the IC50 in assay [1] was 0.3 nM; at PDGFRβ (read-out: PDGFR Cellular IC50), 2.7 nM.

For `Cc1ncc(NC(=O)CN(C)C2CCOCC2)cc1NC(=O)c1cnn2cc(-c3cnn(CC(N)=O)c3)sc12` [Example 300, 2-(1-(2-amino-2-oxoethyl)-1H-pyrazol-4-yl)-N-(2-methyl-5-(2-(methyl(tetrahydro-2H-pyran-4-yl)amino)acetamido)pyridin-3-yl)pyrazolo[5,1-b]thiazole-7-carboxamide], the IC50 is 1.2 nM in assay [1] and 1010 nM on PDGFRβ (read-out: PDGFR Cellular IC50).

As to `Cc1ncc(NC(=O)CN2CC(C)(C)C2)cc1NC(=O)c1cnn2cc(-c3ccc(CO)s3)sc12` [Example 278, N-(5-(2-(3,3-dimethylazetidin-1-yl)acetamido)-2-methylpyridin-3-yl)-2-(5-(hydroxymethyl)thiophen-2-yl)pyrazolo[5,1-b]thiazole-7-carboxamide], the IC50 was 0.2 nM in assay [1] and 1.5 nM on PDGFRβ (read-out: PDGFR Cellular IC50).

For the origin of these results see patent publication US20240109917A1 (ACTELION PHARMACEUTICALS LTD, priority 2020, published 2024).
